# Measurements published in PMC12298624, “Anti-Infective Properties, Cytotoxicity, and In Silico ADME Parameters of Novel 4′-(Piperazin-1-yl)benzanilides” (Pharmaceuticals, 2025).
# Like-named read-outs stand apart in the source and are kept apart here.
# Columns and labels:
# [1] = system: P. falciparum NF54; test: In vitro microplate assay against P. falciparum NF54 (3H-hypoxanthine incorporation); assay type: cell-based, Plasmodium falciparum; details: read-out: P.f.NF54 IC50
# Description: Serial drug dilutions of eleven 3-fold dilution steps covering a range from 100 to 0.002 µg/mL were prepared. […] After 48 h of incubation time, 0.05 mL of ^3H-hypoxanthine (=0.5 µCi) was added to each well of the plate. The plates were incubated for a further 24 h under the same conditions. Plates were then harvested using a BetaplateTM cell harvester (Wallac, Zurich, Switzerland). Red blood cells were transferred onto a glass fiber filter and then washed with distilled aqua demin. The dried filters were inserted into a plastic foil with 10 mL of scintillation fluid and counted in a BetaplateTM liquid scintillation counter (Wallac, Zurich, Switzerland). IC50 values were calculated from sigmoidal inhibition curves by linear regression using Microsoft Excel. […] Louis, MO, USA) was used as control.
# [2] = Resazurin-based in vitro cytotoxicity with L-6 cells; assay type: cell-based, rat; details: rat
# Description: Serial drug dilutions of eleven 3-fold dilution steps covering a range from 100 to 0.002 µg/mL were prepared. After 70 h of incubation, the plates were inspected under an inverted microscope to assure growth of the controls and sterile conditions. […] The plates were read with a Spectramax Gemini XS microplate fluorometer (Molecular Devices Cooperation, Sunnyvale, CA, USA) using an excitation wavelength of 536 nm and an emission wavelength of 588 nm. IC50 values were calculated by linear regression from the sigmoidal dose–inhibition curves using SoftmaxPro software Version 8.2.1 (Molecular Devices Cooperation, Sunnyvale, CA, USA). Podophyllotoxin (Sigma P4405) was used as control.
# [3] = Resazurin-based in vitro cytotoxicity with HepG2 cells; assay type: cell-based, human; details: HepG2 cells; human hepatocarcinoma cells, 48 h
# Description: The HepG2 cells were washed with DPBS (Dulbecco’s PBS without calcium and magnesium, Gibco, Cat #21600-044) and trypsinized with trypsin solution in DPBS. Trypsinization was stopped by adding culture medium, and after being stained with Trypan Blue (SORS Ukraine) cells were counted using a counting chamber (Hausser Scientific, Cat #3500). The cell suspension was placed in a falcon tube containing plating medium DMEM/High glucose with 1% fetal bovine serum, 100 units/mL penicillin, and 100 µg/mL streptomycin. Cells at a density of 250,000 cells/mL were seeded in sterile 384-well plates (Greiner Bio-One, Cat #781091) in a volume of […] and incubated at 37 °C and 5% CO2. Serial dilutions of ten 3-fold dilution steps of test and reference compounds covering a range from 100.0 to 0.005 µM were added to the wells, followed by incubation at 37 °C and 5% CO2 for 48 h. Then, resazurin (50 µM final concentration) was added and plates were incubated for another 3 h. The plates were read with a SpectraMax microplate reader (Molecular Devices Cooperation, Sunnyvale, CA, USA)) using an extinction wavelength of 555 nm and an emission wavelength of 570 nm. IC50 values were calculated using GraphPad Prism 9.0 charting software. Doxorubicin (Sigma Aldrich D1515) was used as control.
# [4] = system: K. pneumoniae ATCC 700603; test: MIC/MBC microbroth dilution (EUCAST); assay type: cell-based; details: Klebsiella pneumoniae, ATCC700603
# Description: (§1) Minimum inhibitory concentrations (MIC values) were obtained using the microbroth dilution method as stated in the EUCAST guidelines. Tests were conducted on cation adjusted Mueller–Hinton broth (caMHB) or agar (caMHA). These were prepared and stored following the manufacturer’s guidelines. Biological organisms were prepared via growth on either Luria–Bertani (LB) or cation adjusted Mueller–Hinton agar plates. These were grown for 24 h at 37 °C, except for Micrococcus luteus where MICs took longer to grow and as a consequence were read after 48 h once a clear positive control could be observed. For the MIC experiment, the bacteria were prepared using the McFarland 0.5 standard and diluted 1 in 100 or 1 in 10 in caMHB following EUCAST and CSLI guidelines for the preparation of bacteria. Testing of the compounds using the microbroth dilution method took place in 96-well plates. Serial 2-fold dilutions of compounds in caMHB covering a range from 256 µg/mL to 0.25 µg/mL were prepared. Bacteria preparations (McFarland) were added to the compound dilutions, further halving the compound concentrations. The plate was then incubated for 18 h at 37 °C. Controls for the MIC experiments included a bacterial growth (positive) control of bacteria and caMHB only and a media only (negative) control. After incubation, the plates were read, whereby the positive control of bacteria was visible and the negative control was clear of contamination. The last clear well, where there is no growth of bacteria, was counted as the MIC value. […] The lowest concentration without any bacterial growth was counted as the MBC value. The following pathogens were used: Pseudomonas aeruginosa NCTC 13437, Escherichia coli NCTC 13353, Bacillus subtilis 168a, Serratia marcescens NCTC 9940, Micrococcus luteus ATCC 10240, Staphylococcus aureus JE2 USA 300, Acinetobacter baumannii ATCC 19606, and Klebsiella pneumoniae ATCC 700603. A concentration range of 256 µg/mL to 0.25 µg/mL of a combination of ciprofloxacin and meropenem against E. coli 25922 was used as an antibiotic control to ensure correct dilution and performance of the assay.
# [5] = system: P. aeruginosa NCTC 13437; test: MIC/MBC microbroth dilution (EUCAST); assay type: cell-based; details: Pseudomonas aeruginosa, NCTC13437
# Description: as §1
# [6] = system: S. aureus JE2 USA 300; test: MIC/MBC microbroth dilution (EUCAST); assay type: cell-based; details: Staphylococcus aureus, USA300, S. aureus JE2 USA 300
# Description: as §1
# [7] = system: S. marcescens NCTC 9940; test: MIC/MBC microbroth dilution (EUCAST); assay type: cell-based; details: Serratia marcescens, NCTC9940
# Description: as §1
# [8] = system: E. coli NCTC 13353; test: MIC/MBC microbroth dilution (EUCAST); assay type: cell-based, Escherichia coli; details: for MBC: NCTC13353
# Description: as §1
# [9] = system: A. baumannii ATCC 19606; test: MIC/MBC microbroth dilution (EUCAST); assay type: cell-based, Acinetobacter baumannii; details: for MBC: ATCC19606
# Description: as §1
# [10] = system: B. subtilis 168a; test: MIC/MBC microbroth dilution (EUCAST); assay type: cell-based, Bacillus subtilis
# Description: as §1
# [11] = system: M. luteus ATCC 10240; test: MIC/MBC microbroth dilution (EUCAST); assay type: cell-based, Micrococcus luteus
# Description: as §1
# [12] = Parallel artificial membrane permeability assay (PAMPA); details: PAMPA, PBS pH 7.4, 200 µM, 5 h, room temperature; for Papp at 5 h, 200 µM: pH 7.4, Pe
# Description: With the high-throughput PAMPA the newly synthesized compounds were tested for their passive permeability through cell membranes without the influence of efflux pumps or transporter proteins. The assay was performed using a Corning® Gentest^TM Precoated PAMPA Plate System (Corning, Glendale, AZ, USA) with 96-well polystyrene plates. The bottom of the acceptor plate consists of a porous membrane, whereby the pores are lined with a lipid–oil–lipid triple layer. Stock solutions of each test compound at 10 mM were prepared in DMSO or methanol and diluted with phosphate-buffered saline (PBS at a pH of 7.4) to a final concentration of 200 µM. […] The donor plate (bottom plate) was filled with the compound solutions, whereby all compounds were tested in quadruplicates. Each well of the acceptor plate (top plate) was filled with PBS buffer. Donor and acceptor plates were combined and incubated at room temperature for 5 h. After that, the plates were separated and 150 µL of each well of both plates were transferred to 96-well UV plates (Greiner Bio-One). Absorption at different wavelengths covering a range from 200 to 300 nm was measured using a SpectraMax M3 UV plate reader. […] The plates were analyzed at the wavelength where the R2 value of the calibration curve was higher than 0.99 [47].
# Recovery of compounds from donor and acceptor wells (mass retention) was calculated as shown in the equation below. Data were only accepted when recovery exceeded 70%. The equation is as follows:(3) R=1−[cDt×VD+cAt×VA]/(c0×VD) where
# [13] = Plasmodium falciparum, NF54, chloroquine-sensitive strain NF54, erythrocytic stages
# [14] = Escherichia coli, NCTC13353, read-out: MIC
# [15] = Acinetobacter baumannii, ATCC19606, read-out: MIC
# [16] = Bacillus subtilis, 168A, read-out: MIC
# [17] = Micrococcus luteus, ATCC10240, M. luteus ATCC 10240, read-out: MBC
# [18] = Micrococcus luteus, ATCC10240, M. luteus ATCC 10240, read-out: MIC
Compound,"IC50 [1, 13]",IC50 at 70 h [2],IC50 at 48 h [3],MBC [4],MIC [4],MBC [5],MIC [5],MBC [6],MIC [6],MBC [7],MIC [7],MBC ([8]; Escherichia coli),"MIC [8, 14]",MBC ([9]; Acinetobacter baumannii),"MIC [9, 15]","MBC ([10]; Bacillus subtilis, 168A)","MIC [10, 16]","MBC [11, 17]","MIC [11, 18]","Papp at 5 h, 200 µM [12]",further results
"CN1CCN(C(=O)c2cccc(C(F)(F)F)c2Oc2ccc(F)cc2)CC1 [Compound 49, [2-(4-Fluorophenoxy)-3-(trifluoromethyl)phenyl](4-methylpiperazin-1-yl)methanon]",55.2 µM,137 µM,> 100 µM,> 256 µg/mL,> 256 µg/mL,> 256 µg/mL,256 µg/mL,> 256 µg/mL,> 256 µg/mL,> 256 µg/mL,> 256 µg/mL,> 256 µg/mL,256 µg/mL,> 256 µg/mL,256 µg/mL,> 256 µg/mL,256 µg/mL,256 µg/mL,256 µg/mL,8.5 ×10⁻⁶ cm/s,
"O=C(c1cccc(C(F)(F)F)c1Oc1ccc(F)cc1)N1CCOCC1 [Compound 51, [2-(4-Fluorophenoxy)-3-(trifluoromethyl)phenyl](morpholin-4-yl)methanon]",81.1 µM,154 µM,> 100 µM,> 256 µg/mL,> 256 µg/mL,> 256 µg/mL,> 256 µg/mL,> 256 µg/mL,> 256 µg/mL,> 256 µg/mL,> 256 µg/mL,> 256 µg/mL,> 256 µg/mL,256 µg/mL,256 µg/mL,> 256 µg/mL,256 µg/mL,128 µg/mL,256 µg/mL,10.4 ×10⁻⁶ cm/s,
"O=C(c1cccc(C(F)(F)F)c1Oc1ccc(F)cc1)N1CCNCC1 [Compound 52, [2-(4-Fluorophenoxy)-3-(trifluoromethyl)phenyl](piperazin-1-yl)methanon]",23.2 µM,136 µM,> 100 µM,> 256 µg/mL,> 256 µg/mL,> 256 µg/mL,> 256 µg/mL,> 256 µg/mL,> 256 µg/mL,> 256 µg/mL,> 256 µg/mL,> 256 µg/mL,> 256 µg/mL,> 256 µg/mL,256 µg/mL,> 256 µg/mL,> 256 µg/mL,256 µg/mL,256 µg/mL,8.35 ×10⁻⁶ cm/s,
"O=C(Nc1ccccc1N1CCNCC1)c1cccc(C(F)(F)F)c1Sc1ccc(F)cc1 [Compound 55, 2-[(4-Fluorophenyl)sulfanyl]-N-[2-(piperazin-1-yl)phenyl]-3-(trifluoromethyl)benz-amide]",0.692 µM,7.06 µM,4.6 µM,> 256 µg/mL,> 256 µg/mL,> 256 µg/mL,256 µg/mL,,,> 256 µg/mL,256 µg/mL,64 µg/mL,32 to 64 µg/mL,64 µg/mL,32 to 64 µg/mL,,16 to 64 µg/mL,16 to 64 µg/mL,16 to 64 µg/mL,4.41 ×10⁻⁶ cm/s,"IC50 ([1]; chloroquine-sensitive strain NF54, erythrocytic stages): 0.69 µM; MIC [8]: 64 µg/mL; MIC [9]: 32 µg/mL; MIC [10]: 32 µg/mL; MBC ([11]; M. luteus ATCC 10240): 16 µg/mL; MIC ([11]; M. luteus ATCC 10240): 16 µg/mL; Pe [12]: 6.51 10^−6 cm/s"
